In patent US20240130988A1, “Use of stilbene compounds in the preparation of anti-tumor drugs” (Guangzhou AnHao Pharmaceutical Technology CO., LTD., priority 2022, published 2024):

System: human liver cancer QGY7703
Assay: Compound 6 combined with T cells, human liver cancer QGY7703 model in NOG mice
Format: in vivo
Conditions: 8 × 10^6 T cells sc, compound 6 200 mg/kg ip, or both
Description: Experimental method: QGY7703 tumor cells were washed twice with PBS, and then resuspended with PBS:Matrix (1:1 mixture by volume). The cell concentration was adjusted to 2.5×10^6/mL, and subcutaneously inoculated to the right armpit of experimental animals at 200 μL/mouse, i.e. 5×10^5 cells/mouse. When the tumor grew to about 50 mm^3, the mice were divided into groups for administration.
T cell culture and harvest: PBMCs of donors were activated and expanded in vitro according to the standard operating procedures for T cell culture. The cells in logarithmic growth phase were harvested and suspended in the medium at a moderate dose (2×10^7/mL) for future use.
T cells were administrated by subcutaneous injection, and the injection site was the same as the inoculation site of tumor cells.
The general conditions, body weight, tumor volume, and tumor weight of mice were recorded every 3 days. Based on the status of the tumor, whether EAL was further injected was decided.
The effect of combined medicaments was evaluated based on the Q value calculated by Jin's formula: […]
Ea+b represents the tumor inhibitory rate of the combined medicaments, while Ea and Eb represent the tumor inhibitory rates of medicament A and medicament B, respectively.

## COc1ccc(/C=C(/C(=O)O)c2cc(OC)c(OC)c(OC)c2)cc1O [Compound 6, (E)-3-(3-hydroxy-4-methoxyphenyl)-2-(3,4,5-trimethoxyphenyl)acrylic acid]
  RTV(d 32): 19.62 ± 3.17
  Terminal weight: 24.5 ± 0.9 g
  Tumor inhibitory rate %: 39.61%
